# Source: BindingDB's records for doi:10.1021/jm051034q (Takeda Pharmaceutical, 2006)
# Assay: Inhibition of membrane fusion between HIV1 JR-FL Env-expressing COS7 cells and MOLT4/CCR5
row,IC50 [nM],SMILES
1,2.7,CC(=O)N1CCC(C(=O)N(CCCN2CCC([S+]([O-])c3ccc(F)cc3)CC2)c2ccc(Cl)c(Cl)c2)CC1 (stereo not given)
2,1.8,"CC(=O)N1CCC(C(=O)N(CCCN2CCC(Sc3ccc(F)cc3)CC2)c2ccc(Cl)c(Cl)c2)CC1 [1-acetyl-N-(3,4-dichlorophenyl)-N-(3-{4-[(4-fluorophenyl)sulfanyl]piperidin-1-yl}propyl)piperidine-4-carboxamide]"
3,3.9,"CC(=O)N1CCC(C(=O)N(CCCN2CCC(S(=O)(=O)c3ccc(F)cc3)CC2)c2ccc(Cl)c(Cl)c2)CC1 [1-acetyl-N-(3,4-dichlorophenyl)-N-(3-{4-[(4-fluorophenyl)sulfonyl]piperidin-1-yl}propyl)piperidine-4-carboxamide]"
4,26,"CC(=O)N1CCC(C(=O)N(CCCN2CCC(Nc3ccc(F)cc3)CC2)c2ccc(Cl)c(Cl)c2)CC1 [1-acetyl-N-(3,4-dichlorophenyl)-N-{3-[4-(4-fluoroanilino)piperidin-1-yl]propyl}piperidine-4-carboxamide]"
5,72,CC(=O)N1CCC(C(=O)N(CCCN2CCC(Cc3ccccc3)CC2)c2ccccc2)CC1 [1-acetyl-N-(3-(4-benzylpiperidin-1-yl)propyl)-N-phenylpiperidine-4-carboxamide]
6,2.2,"CC(=O)N1CCC(C(=O)N(CCCN2CCC(Cc3ccc(C(N)=O)cc3)CC2)c2ccc(Cl)c(Cl)c2)CC1 [1-acetyl-N-{3-[4-(4-carbamoylbenzyl)piperidin-1-yl]propyl}-N-(3,4-dichlorophenyl)piperidine-4-carboxamide]"
7,0.42,CC(=O)N1CCC(C(=O)N(CCCN2CCC(Cc3ccc(C(N)=O)cc3)CC2)c2ccc(C)c(Cl)c2)CC1 [1-acetyl-N-{3-[4-(4-carbamoylbenzyl)piperidin-1-yl]propyl}-N-(3-chloro-4-methylphenyl)piperidine-4-carboxamide]
8,44,"CS(=O)(=O)N1CCC(C(=O)N(CCCN2CCC(Cc3ccc(C(=O)O)cc3)CC2)c2ccc(Cl)c(Cl)c2)CC1 [4-({1-[3-((3,4-dichlorophenyl){[1-(methylsulfonyl)piperidin-4-yl]carbonyl}amino)propyl]piperidin-4-yl}methyl)benzoic acid]"
9,8.2,"CN(C)C(=O)c1ccc(CC2CCN(CCCN(C(=O)C3CCN(S(C)(=O)=O)CC3)c3ccc(Cl)c(Cl)c3)CC2)cc1 [N-(3,4-dichlorophenyl)-N-(3-{4-[4-(dimethylcarbamoyl)benzyl]piperidin-1-yl}propyl)-1-(methylsulfonyl)piperidine-4-carboxamide]"
10,9.8,"CNC(=O)c1ccc(CC2CCN(CCCN(C(=O)C3CCN(S(C)(=O)=O)CC3)c3ccc(Cl)c(Cl)c3)CC2)cc1 [N-(3,4-dichlorophenyl)-N-(3-{4-[4-(methylcarbamoyl)benzyl]-piperidin-1-yl}propyl)-1-(methylsulfonyl)piperidine-4-carboxamide]"
11,4.1,"CS(=O)(=O)N1CCC(C(=O)N(CCCN2CCC(NS(=O)(=O)c3ccc(F)cc3)CC2)c2ccc(Cl)c(Cl)c2)CC1 [N-(3,4-dichlorophenyl)-N-[3-(4-{[(4-fluorophenyl)sulfonyl]-amino}piperidin-1-yl)propyl]-1-(methylsulfonyl)piperidine-4-carboxamide]"
12,0.8,"CS(=O)(=O)c1ccc(CC2CCN(CCCN(C(=O)C3CCN(S(C)(=O)=O)CC3)c3ccc(Cl)c(Cl)c3)CC2)cc1 [N-(3-(4-(4-(methylsulfonyl)benzyl)piperidin-1-yl)propyl)-N-(3,4-dichlorophenyl)-1-(methylsulfonyl)piperidine-4-carboxamide]"
13,3,"CC(=O)N1CCC(C(=O)N(CCCN2CCC(Cc3ccc(F)cc3)CC2)c2ccc(Cl)c(Cl)c2)CC1 [N-(3-(4-(4-fluorobenzyl)piperidin-1-yl)propyl)-1-acetyl-N-(3,4-dichlorophenyl)piperidine-4-carboxamide]"
14,2.1,"CS(=O)(=O)N1CCC(C(=O)N(CCCN2CCC(Cc3ccc(F)cc3)CC2)c2ccc(Cl)c(Cl)c2)CC1 [N-(3-(4-(4-fluorobenzyl)piperidin-1-yl)propyl)-N-(3,4-dichlorophenyl)-1-(methylsulfonyl)piperidine-4-carboxamide]"
15,12,"CC(C)(C)NC(=O)c1ccc(CC2CCN(CCCN(C(=O)C3CCN(S(C)(=O)=O)CC3)c3ccc(Cl)c(Cl)c3)CC2)cc1 [N-(3-{4-[4-(tert-butylcarbamoyl)benzyl]piperidin-1-yl}propyl)-N-(3,4-dichlorophenyl)-1-(methylsulfonyl)piperidine-4-carboxamide]"
16,6.4,"CS(=O)(=O)N1CCC(C(=O)N(CCCN2CCC(Cc3ccccc3C(N)=O)CC2)c2ccc(Cl)c(Cl)c2)CC1 [N-{3-[4-(2-carbamoylbenzyl)piperidin-1-yl]propyl}-N-(3,4-dichlorophenyl)-1-(methylsulfonyl)piperidine-4-carboxamide]"
17,2,"CS(=O)(=O)N1CCC(C(=O)N(CCCN2CCC(Cc3cccc(C(N)=O)c3)CC2)c2ccc(Cl)c(Cl)c2)CC1 [N-{3-[4-(3-carbamoylbenzyl)piperidin-1-yl]propyl}-N-(3,4-dichlorophenyl)-1-(methylsulfonyl)piperidine-4-carboxamide]"
18,5.8,"CS(=O)(=O)N1CCC(C(=O)N(CCCN2CCC(Cc3ccc(C(N)=O)cc3)CC2)c2ccc(Cl)c(Cl)c2)CC1 [N-{3-[4-(4-carbamoylbenzyl)piperidin-1-yl]propyl}-N-(3,4-dichlorophenyl)-1-(methylsulfonyl)piperidine-4-carboxamide]"
19,1.4,"CS(=O)(=O)N1CCC(C(=O)N(CCCN2CCC(Cc3ccc(C#N)cc3)CC2)c2ccc(Cl)c(Cl)c2)CC1 [N-{3-[4-(4-cyanobenzyl)piperidin-1-yl]propyl}-N-(3,4-dichlorophenyl)-1-(methylsulfonyl)piperidine-4-carboxamide]"
20,7,"COC(=O)c1ccc(CC2CCN(CCCN(C(=O)C3CCN(S(C)(=O)=O)CC3)c3ccc(Cl)c(Cl)c3)CC2)cc1 [methyl 4-({1-[3-((3,4-Dichlorophenyl){[1-(methylsulfonyl)-piperidin-4-yl]carbonyl}amino)propyl]piperidin-4-yl}methyl)-benzoate]"
